Patent US10080739B2, “Aryl imidazoles and their use as anti-cancer agents” (Aptose Biosciences Inc., priority 2003, dated 2018)
Entries after “also recorded” stand apart in the source; their conditions may differ.

Key:
[1] = tested on: MDA-MB-231 breast adenocarcinoma cells; experiment: morphological changes (vacuoles), MDA-MB-231; format: cell-based, human; settings: MDA-MB-231 cells, treatment for 24 hours
From the text: These vacuoles are not formed in DMSO- or doxorubicin-treated cells. Moreover, the nuclear membrane is no longer evident in the phase-contrast images of cells treated with compound 45, even though the nucleus is still intact, as shown by DAPI staining.

PKBα = biological target: T1, PKBα (Homo sapiens, UniProt P31749); experiment: kinase profiler, PKBα; format: biochemical; settings: 10 μM compound, 100 μM ATP, mean of % control
T1 construct: purchased Upstate Biotechnologies (kinase profiler service)
Description: (§1) Compound 45 was tested for its ability to function as a kinase inhibitor using the kinase profiler service from Upstate Biotechnologies. The general protocol employed is as follows: recombinant kinases were incubated with specific substrates, 10 mM MgAcetate, and [γ-^33P-ATP]. The reaction was initiated by the addition of MgATP mix. After incubation at room temperature for 40 minutes, the reaction was stopped by the addition of 5 μl of a 3% phosphoric acid solution. 10 μl of the reaction was then spotted on to a P30 filtermat and washed 3 times for 5 min. in 75 mM phosphoric acid and once in methanol prior to drying and scintillation counting. Each reaction was performed in duplicate with 100 μM ATP −/+10 μM compound 45. Results are presented in Table IV and are expressed as the mean of % control (no compound). PI 3-kinase-γ (PI3K-γ) activity was determined with the PIProfiler™ assay, which measures the binding of the GRP1 pleckstrin homology (PH) domain to PIP3, the product of PI3K acting on its physiological substrate PIP2.

[2] = tested on: human non-small cell lung cancer cells (H460); experiment: XTT cell proliferation assay, H460 cells, 48 h; format: cell-based; settings: NCI-H460, 48 h, read-out: % Survival
Description: Selected compounds of Formula I were tested for anti-cancer activity in vitro using a human colon carcinoma cells (HT-29) and human non-small cell lung cancer cells (H460). The cells were maintained in α-MEM medium (Wisent, St-Bruno, Qc) supplemented with 10% FBS, and grown at 37° C. in an atmosphere of 5% CO2. Cells were transferred onto 150 mm tissue culture plates and grown until sub-confluency (70-80%) prior to their use.
The anti-cancer activity in vitro was evaluated by a cell proliferation assay based on the ability of live cells to reduce the tetrazolium salt XTT to orange coloured compounds of formazan (XTT cell proliferation kit II, Roche Applied Science, Montreal, QC).
Approximately 4×10^3 colon cancer cells (HT-29) or 2×10^3 non-small cell lung cancer cells (NCI-H460) in 100 μl of complete culture medium were plated onto 96-well microtiter plates and incubated overnight at 37° C. The medium was then removed by inverting the plate and patting on a sterile absorbent cloth. Fifty μl of medium containing the test compound at either 25 or 100 μM, were added to the wells containing cells and incubated at 37° C. in an atmosphere of 5% CO2 for 48 h. Following incubation, 25 μl of an XTT reaction mixture (XTT at a final concentration of 0.3 mg/ml) were added to each well and the plates were incubated for a further 4 h. The absorbance of each sample was then determined at a wavelength of 490 nm/650 nm as reference. Each compound was tested in duplicate and the results are reported as averages.

CDK3/cyclinE = biological target: T2, CDK3/cyclinE (Homo sapiens, UniProt Q00526); experiment: kinase profiler, CDK3/cyclinE; format: biochemical; settings: 10 μM compound, 100 μM ATP, mean of % control
T2 construct: purchased Upstate Biotechnologies (kinase profiler service)
Description: as §1

[3] = tested on: HT-29 colon adenocarcinoma cells; experiment: cell cycle analysis by flow cytometry; format: cell-based, human; settings: HT-29 cells starved 3 days, 15 μM or 25 μM for 24 or 48 hours, 10% serum
Description: The effect of treatment with compound 45 on cell cycle progression in HT-29 colon adenocarcinoma cells was examined by flow cytometry (FIG. 22). Values were determined by gate analysis of flow cytometric plots and are presented in FIG. 22 as a percentage of the total cell population, after eliminating doubles. Apoptotic events inferred by the surface area preceding G1 phase. Cells were starved for 3 days, and treated with 15 μM or 25 μM compound 45 for 24 or 48 hours in the presence of 10% serum, followed by flow cytometric analysis.

IGF-1R = biological target: T3, IGF-1R (Homo sapiens, UniProt P08069); experiment: kinase profiler, IGF-1R; format: biochemical; settings: 10 μM compound, 100 μM ATP, mean of % control
T3 construct: purchased Upstate Biotechnologies (kinase profiler service)
Description: as §1

PKCα = biological target: T4, PKCα (Homo sapiens, UniProt P17252); experiment: kinase profiler, PKCα; format: biochemical; settings: 10 μM compound, 100 μM ATP, mean of % control
T4 construct: purchased Upstate Biotechnologies (kinase profiler service)
Description: as §1

EphB4 = biological target: T5, EphB4 (Homo sapiens, UniProt P54760); experiment: kinase profiler, EphB4; format: biochemical; settings: 10 μM compound, 100 μM ATP, mean of % control
T5 construct: purchased Upstate Biotechnologies (kinase profiler service)
Description: as §1

PI3K-δ = biological target: T6, PI3K-δ (Homo sapiens, UniProt O00329); experiment: kinase profiler, PI3K-δ; format: biochemical; settings: 10 μM compound, mean of % control
T6 construct: purchased Upstate Biotechnologies (kinase profiler service)
Description: as §1

Plk3 = biological target: T7, Plk3 (Homo sapiens, UniProt Q9H4B4); experiment: kinase profiler, Plk3; format: biochemical; settings: 10 μM compound, 100 μM ATP, mean of % control
T7 construct: purchased Upstate Biotechnologies (kinase profiler service)
Description: as §1

SGK = biological target: T8, SGK (Homo sapiens, UniProt O00141); experiment: kinase profiler, SGK; format: biochemical; settings: 10 μM compound, 100 μM ATP, mean of % control
T8 construct: purchased Upstate Biotechnologies (kinase profiler service)
Description: as §1

CDK7/cyclinH/MAT1 = biological target: T9, CDK7/cyclinH/MAT1 (Homo sapiens, UniProt P50613); experiment: kinase profiler, CDK7/cyclinH/MAT1; format: biochemical; settings: 10 μM compound, 100 μM ATP, mean of % control
T9 construct: purchased Upstate Biotechnologies (kinase profiler service)
Description: as §1

PKD2 = biological target: T10, PKD2 (Homo sapiens, UniProt Q9BZL6); experiment: kinase profiler, PKD2; format: biochemical; settings: 10 μM compound, 100 μM ATP, mean of % control
T10 construct: purchased Upstate Biotechnologies (kinase profiler service)
Description: as §1

IKKα = biological target: T11, IKKα (Homo sapiens, UniProt O15111); experiment: kinase profiler, IKKα; format: biochemical; settings: 10 μM compound, 100 μM ATP, mean of % control
T11 construct: purchased Upstate Biotechnologies (kinase profiler service)
Description: as §1

Rse = biological target: T12, Rse (Homo sapiens, UniProt Q06418); experiment: kinase profiler, Rse; format: biochemical; settings: 10 μM compound, 100 μM ATP, mean of % control
T12 construct: purchased Upstate Biotechnologies (kinase profiler service)
Description: as §1

ASK1 = biological target: T13, ASK1 (Homo sapiens, UniProt Q99683); experiment: kinase profiler, ASK1; format: biochemical; settings: 10 μM compound, 100 μM ATP, mean of % control
T13 construct: purchased Upstate Biotechnologies (kinase profiler service)
Description: as §1

SAPK4 = biological target: T14, SAPK4 (Homo sapiens, UniProt O15264); experiment: kinase profiler, SAPK4; format: biochemical; settings: 10 μM compound, 100 μM ATP, mean of % control
T14 construct: purchased Upstate Biotechnologies (kinase profiler service)
Description: as §1

MKK6 = biological target: T15, MKK6 (Homo sapiens, UniProt P52564); experiment: kinase profiler, MKK6; format: biochemical; settings: 10 μM compound, 100 μM ATP, mean of % control
T15 construct: purchased Upstate Biotechnologies (kinase profiler service)
Description: as §1

JNK3 = biological target: T16, JNK3 (Homo sapiens, UniProt P53779); experiment: kinase profiler, JNK3; format: biochemical; settings: 10 μM compound, 100 μM ATP, mean of % control
T16 construct: purchased Upstate Biotechnologies (kinase profiler service)
Description: as §1

ALK = biological target: T17, ALK (Homo sapiens, UniProt Q9UM73); experiment: kinase profiler, ALK; format: biochemical; settings: 10 μM compound, 100 μM ATP, mean of % control
T17 construct: purchased Upstate Biotechnologies (kinase profiler service)
Description: as §1

FGFR3 = biological target: T18, FGFR3 (Homo sapiens, UniProt P22607); experiment: kinase profiler, FGFR3; format: biochemical; settings: 10 μM compound, 100 μM ATP, mean of % control
T18 construct: purchased Upstate Biotechnologies (kinase profiler service)
Description: as §1

AMPK = experiment: kinase profiler, AMPK; format: biochemical, human; settings: 10 μM compound, 100 μM ATP, mean of % control
Description: as §1

TAK1 = biological target: T19, TAK1 (Homo sapiens, UniProt O43318); experiment: kinase profiler, TAK1; format: biochemical; settings: 10 μM compound, 100 μM ATP, mean of % control
T19 construct: purchased Upstate Biotechnologies (kinase profiler service)
Description: as §1

T9 sequence (P50613 whole entry): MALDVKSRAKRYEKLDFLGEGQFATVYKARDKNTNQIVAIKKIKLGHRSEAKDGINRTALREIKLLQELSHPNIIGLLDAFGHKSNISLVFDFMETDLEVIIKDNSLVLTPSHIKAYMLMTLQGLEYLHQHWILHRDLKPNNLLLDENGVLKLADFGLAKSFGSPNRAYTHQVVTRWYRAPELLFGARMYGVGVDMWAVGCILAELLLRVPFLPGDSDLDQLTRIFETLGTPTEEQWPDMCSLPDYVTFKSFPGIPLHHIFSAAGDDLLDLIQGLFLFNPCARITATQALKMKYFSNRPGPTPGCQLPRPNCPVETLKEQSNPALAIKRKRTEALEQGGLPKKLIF
T9 sequence (P51946 whole entry partner): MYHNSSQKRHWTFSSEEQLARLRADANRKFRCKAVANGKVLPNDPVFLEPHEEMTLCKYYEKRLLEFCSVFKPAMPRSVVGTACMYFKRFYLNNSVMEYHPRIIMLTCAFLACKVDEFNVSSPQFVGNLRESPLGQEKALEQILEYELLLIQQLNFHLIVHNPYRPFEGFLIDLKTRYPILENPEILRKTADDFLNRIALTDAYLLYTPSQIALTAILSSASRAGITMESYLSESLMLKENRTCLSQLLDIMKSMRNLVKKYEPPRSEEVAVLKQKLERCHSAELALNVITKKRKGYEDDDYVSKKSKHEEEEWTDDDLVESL
T9 sequence (P51948 whole entry partner): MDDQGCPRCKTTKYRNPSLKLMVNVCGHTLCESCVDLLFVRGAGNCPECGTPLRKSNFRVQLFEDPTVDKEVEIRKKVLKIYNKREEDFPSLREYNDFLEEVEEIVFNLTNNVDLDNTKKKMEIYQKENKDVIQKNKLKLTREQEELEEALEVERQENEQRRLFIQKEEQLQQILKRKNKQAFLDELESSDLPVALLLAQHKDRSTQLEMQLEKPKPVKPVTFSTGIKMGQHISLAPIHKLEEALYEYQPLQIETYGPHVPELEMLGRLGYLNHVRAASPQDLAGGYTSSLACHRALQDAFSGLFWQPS
T8 sequence (O00141 whole entry): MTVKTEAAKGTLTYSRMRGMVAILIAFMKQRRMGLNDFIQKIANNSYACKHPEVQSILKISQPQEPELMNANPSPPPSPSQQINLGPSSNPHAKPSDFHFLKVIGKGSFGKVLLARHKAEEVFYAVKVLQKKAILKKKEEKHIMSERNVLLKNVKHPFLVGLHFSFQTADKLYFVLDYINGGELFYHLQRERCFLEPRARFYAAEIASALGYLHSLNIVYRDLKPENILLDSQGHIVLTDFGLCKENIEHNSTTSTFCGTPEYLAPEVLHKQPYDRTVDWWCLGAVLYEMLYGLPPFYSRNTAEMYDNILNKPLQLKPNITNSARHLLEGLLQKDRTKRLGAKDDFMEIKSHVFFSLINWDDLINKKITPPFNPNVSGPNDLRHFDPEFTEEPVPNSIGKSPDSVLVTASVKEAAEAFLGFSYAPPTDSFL
T17 sequence (Q9UM73 19-1620): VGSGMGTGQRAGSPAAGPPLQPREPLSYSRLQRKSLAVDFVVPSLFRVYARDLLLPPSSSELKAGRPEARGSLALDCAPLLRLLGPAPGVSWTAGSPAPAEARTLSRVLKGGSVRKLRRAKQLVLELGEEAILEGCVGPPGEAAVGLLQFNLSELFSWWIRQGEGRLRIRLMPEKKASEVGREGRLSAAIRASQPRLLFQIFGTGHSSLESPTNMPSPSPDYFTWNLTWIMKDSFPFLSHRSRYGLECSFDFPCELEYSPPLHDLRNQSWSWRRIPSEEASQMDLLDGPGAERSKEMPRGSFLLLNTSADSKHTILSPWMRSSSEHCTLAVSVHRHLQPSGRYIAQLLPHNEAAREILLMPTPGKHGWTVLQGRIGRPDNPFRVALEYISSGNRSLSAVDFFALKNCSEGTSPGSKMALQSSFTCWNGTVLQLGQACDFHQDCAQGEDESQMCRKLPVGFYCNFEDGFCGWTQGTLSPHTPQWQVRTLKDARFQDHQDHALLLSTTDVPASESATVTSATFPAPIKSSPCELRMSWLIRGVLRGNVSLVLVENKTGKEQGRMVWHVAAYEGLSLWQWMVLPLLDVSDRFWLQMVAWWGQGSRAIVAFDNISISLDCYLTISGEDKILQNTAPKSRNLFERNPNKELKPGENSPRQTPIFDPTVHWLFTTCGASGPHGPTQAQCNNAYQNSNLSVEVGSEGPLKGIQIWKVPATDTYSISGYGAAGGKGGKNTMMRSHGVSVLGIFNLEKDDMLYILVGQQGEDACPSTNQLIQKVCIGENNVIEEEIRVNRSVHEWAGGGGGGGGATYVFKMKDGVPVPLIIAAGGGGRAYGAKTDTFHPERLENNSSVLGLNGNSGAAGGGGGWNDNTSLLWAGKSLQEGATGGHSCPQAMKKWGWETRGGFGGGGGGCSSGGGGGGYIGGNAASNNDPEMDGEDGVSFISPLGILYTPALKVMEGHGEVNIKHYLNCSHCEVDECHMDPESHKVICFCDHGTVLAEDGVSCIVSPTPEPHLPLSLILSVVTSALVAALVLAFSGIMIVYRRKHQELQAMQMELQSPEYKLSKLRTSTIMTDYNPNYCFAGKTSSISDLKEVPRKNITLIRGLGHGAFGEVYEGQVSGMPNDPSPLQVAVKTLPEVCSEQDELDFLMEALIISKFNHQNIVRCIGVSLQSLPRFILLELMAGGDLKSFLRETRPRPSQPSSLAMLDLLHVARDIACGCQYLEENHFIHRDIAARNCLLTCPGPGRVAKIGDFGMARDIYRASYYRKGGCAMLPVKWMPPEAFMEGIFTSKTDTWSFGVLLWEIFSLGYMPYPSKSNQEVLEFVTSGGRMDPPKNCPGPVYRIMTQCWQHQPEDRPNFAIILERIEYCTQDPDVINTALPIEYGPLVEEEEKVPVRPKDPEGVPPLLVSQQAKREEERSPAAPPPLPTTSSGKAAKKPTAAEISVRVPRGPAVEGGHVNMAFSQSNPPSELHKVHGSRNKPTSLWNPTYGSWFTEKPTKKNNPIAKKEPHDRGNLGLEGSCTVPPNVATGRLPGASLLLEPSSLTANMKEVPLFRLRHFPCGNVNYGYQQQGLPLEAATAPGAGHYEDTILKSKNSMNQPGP
T12 sequence (Q06418 41-890): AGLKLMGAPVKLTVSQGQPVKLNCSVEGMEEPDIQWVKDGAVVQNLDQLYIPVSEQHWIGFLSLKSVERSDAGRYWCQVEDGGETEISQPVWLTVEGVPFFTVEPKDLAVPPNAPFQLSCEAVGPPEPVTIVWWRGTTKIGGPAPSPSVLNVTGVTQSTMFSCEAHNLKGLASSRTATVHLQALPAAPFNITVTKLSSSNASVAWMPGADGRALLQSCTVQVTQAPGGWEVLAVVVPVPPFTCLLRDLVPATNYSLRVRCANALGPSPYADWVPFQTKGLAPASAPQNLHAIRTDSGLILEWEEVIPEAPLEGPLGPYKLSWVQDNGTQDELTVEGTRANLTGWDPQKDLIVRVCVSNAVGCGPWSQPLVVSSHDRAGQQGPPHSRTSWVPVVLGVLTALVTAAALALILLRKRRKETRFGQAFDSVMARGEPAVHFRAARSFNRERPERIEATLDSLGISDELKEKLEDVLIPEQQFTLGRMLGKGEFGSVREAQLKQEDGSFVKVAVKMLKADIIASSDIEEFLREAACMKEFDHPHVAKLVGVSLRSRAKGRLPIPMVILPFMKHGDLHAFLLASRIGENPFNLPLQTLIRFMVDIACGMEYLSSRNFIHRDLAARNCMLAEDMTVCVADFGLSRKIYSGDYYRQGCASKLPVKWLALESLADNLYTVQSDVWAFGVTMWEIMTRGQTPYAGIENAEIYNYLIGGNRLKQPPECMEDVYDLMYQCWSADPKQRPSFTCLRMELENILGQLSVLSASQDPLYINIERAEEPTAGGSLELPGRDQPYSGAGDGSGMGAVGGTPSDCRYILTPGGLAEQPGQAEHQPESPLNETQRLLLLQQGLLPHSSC
T16 sequence (P53779 whole entry): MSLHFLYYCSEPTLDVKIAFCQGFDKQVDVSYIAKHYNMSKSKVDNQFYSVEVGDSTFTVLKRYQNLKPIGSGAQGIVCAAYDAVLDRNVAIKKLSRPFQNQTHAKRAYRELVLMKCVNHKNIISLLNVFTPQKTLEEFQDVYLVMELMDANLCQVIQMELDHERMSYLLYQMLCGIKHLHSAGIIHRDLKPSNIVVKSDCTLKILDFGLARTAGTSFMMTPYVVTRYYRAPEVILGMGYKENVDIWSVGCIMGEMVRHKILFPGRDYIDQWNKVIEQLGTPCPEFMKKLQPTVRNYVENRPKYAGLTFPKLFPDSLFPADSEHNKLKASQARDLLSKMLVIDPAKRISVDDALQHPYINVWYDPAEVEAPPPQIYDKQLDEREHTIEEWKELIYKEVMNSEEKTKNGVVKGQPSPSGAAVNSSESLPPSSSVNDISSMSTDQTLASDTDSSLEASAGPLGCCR
T15 sequence (P52564 whole entry): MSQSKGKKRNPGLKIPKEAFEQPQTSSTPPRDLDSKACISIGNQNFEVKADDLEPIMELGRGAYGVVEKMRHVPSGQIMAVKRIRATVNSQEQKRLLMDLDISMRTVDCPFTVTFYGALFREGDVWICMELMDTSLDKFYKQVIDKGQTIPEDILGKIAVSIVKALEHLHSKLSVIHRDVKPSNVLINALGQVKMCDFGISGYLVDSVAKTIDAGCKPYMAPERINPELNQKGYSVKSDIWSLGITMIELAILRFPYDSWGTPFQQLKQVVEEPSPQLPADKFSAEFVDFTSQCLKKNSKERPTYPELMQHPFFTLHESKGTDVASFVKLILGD
T14 sequence (O15264 whole entry): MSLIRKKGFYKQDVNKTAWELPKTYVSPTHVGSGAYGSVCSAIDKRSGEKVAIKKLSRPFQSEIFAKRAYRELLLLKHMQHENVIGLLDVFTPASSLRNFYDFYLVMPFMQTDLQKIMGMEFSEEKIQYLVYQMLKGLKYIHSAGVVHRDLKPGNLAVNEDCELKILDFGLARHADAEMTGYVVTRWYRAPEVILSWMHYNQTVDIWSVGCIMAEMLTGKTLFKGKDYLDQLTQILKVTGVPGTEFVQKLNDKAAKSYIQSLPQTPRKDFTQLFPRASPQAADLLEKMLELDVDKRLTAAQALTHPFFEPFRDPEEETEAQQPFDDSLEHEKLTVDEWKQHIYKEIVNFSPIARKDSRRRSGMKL

## Brc1ccc2[nH]cc(-c3nc4c5ccccc5c5ccccc5c4[nH]3)c2c1 [Compound 45]
[1]
  formation of vacuoles: formation of large vacuoles within the cytoplasm
PKBα
  activity at 10 µM: 95%
[2]
  viability at 25 µM: 96%
  viability at 100 µM: 32.7%
CDK3/cyclinE
  activity at 10 µM: 107%
[3]
  effect on cell cycle progression: increase of cells in the G1 phase and a decrease in the S and G2/M phases; also recorded: partial arrest in the G0/G1 phase
IGF-1R
  activity at 10 µM: 80%
PKCα
  activity at 10 µM: 92%
EphB4
  activity at 10 µM: 95%
PI3K-δ
  activity at 10 µM: 9%
Plk3
  activity at 10 µM: 132%
SGK
  activity at 10 µM: 89%
CDK7/cyclinH/MAT1
  activity at 10 µM: 95%
PKD2
  activity at 10 µM: 52%
IKKα
  activity at 10 µM: 150%
Rse
  activity at 10 µM: 176%
ASK1
  activity at 10 µM: 99%
SAPK4
  activity at 10 µM: 77%
MKK6
  activity at 10 µM: 86%
JNK3
  activity at 10 µM: 121%
ALK
  activity at 10 µM: 60%
FGFR3
  activity at 10 µM: 82%
AMPK
  % activity: 100%
TAK1
  activity at 10 µM: 104%
